Values of other authors in US20050182136A1, “N-acetylcysteine compositions and methods for the treatment and prevention of endothelial dysfunction” (priority 2004, published 2005).

Legend:
[1] = animal experiments, daily NAC dose of 150 mg/kg, over no treatment
[2] = oral NAC, intravenous contrast agents
[3] = patients with end-stage renal failure, 600 mg twice a day
[4] = relative to NAC

Row | SMILES | cysteine levels [1] | glutathione levels [1] | increase of serum creatinine after the administration of the contrast agent [2] | various adverse cardiovascular events [3] | bioactive at doses less than NAC [4]
1 | CC(=O)N[C@@H](CS)C(=O)O [NAC, N-acetylcysteine] | substantially increase | substantially increase | significant reduction | significantly reduced | –
2 | CC(=O)N[C@@H](CSSC[C@H](NC(C)=O)C(=O)O)C(=O)O [oxidized form of NAC, di-N-acetylcysteine] | – | – | – | – | 10-100 fold
